Laboratory results: US8507219B2, “Method of treating inflammation with statins” (MUSC Foundation for Research Development, priority 1997, dated 2013)
Entries after “also recorded” stand apart in the source; their conditions may differ. Read-outs that look alike come from different tables or passages of the source.

What was measured:
[1] = test system: ceramide production in rat primary astrocytes; test: Degradation of sphingomyelin to ceramide (DAG kinase assay, HPTLC) in rat primary astrocytes; format: cell-based
Procedure: Lipid extraction Approximately 1.0×10^6 cells were exposed to different cytokines in the presence or absence of antioxidants for different periods and lipids were extracted according to the methods described by Welsh (1996).
Quantification of sphingomyelin by HPTLC and densitometry Sphingomyelin was separated from total lipid extracts by HPTLC (LPK-plates from Whatman Labsales, USA) as described (Ganser et al., 1988) for phospholipids with the modification, that the plate was overrun for 30 min during its development and was dried overnight in vacuum desicator. Sphingomyelin was quantitated by densitometric scanning using Imaging Densitometer (Model GS-670; Bio-Rad, USA) and software provided with the instrument by the manufacturer.
Quantification of ceramide levels by diacylglycerol kinase assay Ceramide content was quantified essentially according to Priess et al. using diacylglycerol (DAG) kinase and [γ-^32P]ATP (Priess et al., 1986). Briefly, dried lipids were solubilized in 20 μl of an octyl β-D-glucoside/cardiolipin solution (7.5% octyl β-D-glucoside, 5 mM cardiolipin in 1 mM DTPA) by sonication in a sonicator bath. […] The labeled ceramide 1-phosphate was resolved with a solvent system consisting of methyl acetate: n-propanol:chloroform:methanol:0.25% KCl in water:acetic-acid (100:100:100:40:36:2). A standard sample of ceramide was phosphorylated under identical conditions and developed in parallel. […] Quantification of ceramide 1-phosphate was carried out by autoradiography and densitometric scanning using Imaging Densitometer (Model GS-670; Bio-Rad, USA). Values are expressed either as arbitrary units (absorbance) or as percent change.
Lipid Extraction Approximately 1.0×10^6 cells were exposed to different cytokines in the presence or absence of antioxidants for different periods, and lipids were extracted according to the methods described by Welsh (1996).
Quantification of Sphingomyelin by High Performance TLC and Densitometry Sphingomyelin was separated from total lipid extracts by high performance TLC (LHPK plates from Whatman) as described by Ganser et al. (1988) for phospholipids with the following modification: the plate was overrun for 30 min during its development and was dried overnight in vacuum desiccator. Sphingomyelin was quantitated by densitometric scanning using Imaging Densitometer (model GS-670; Bio-Rad), and software was provided with the instrument by the manufacturer.
Quantification of Ceramide Levels by Diacylglycerol Kinase Assay Ceramide content was quantified essentially according to Priess et al. (1986) using diacylglycerol (DAG) kinase and [γ-^32P]ATP. Briefly, dried lipids were solubilized in 20 μl of an octyl β-D-glucoside/cardiolipin solution (7.5% octyl β-D-glucoside, 5 mM cardiolipin in 1 mM DTPA) by sonication in a sonicator bath. […] The labeled ceramide-1-phosphate was resolved with a solvent system consisting of methyl acetate:n-propyl alcohol:chloroform:methanol, 0.25% KCl in water:acetic acid (100:100:100:40:36:2). A standard sample of ceramide was phosphorylated under identical conditions and developed in parallel. […] Quantification of ceramide-1-phosphate was carried out by autoradiography and densitometric scanning using Imaging Densitometer (model GS-670; Bio-Rad). Values are expressed either as arbitrary units (absorbance) or as percent change.

[2] = test system: cultured skin fibroblasts of X-ALD; test: β-oxidation of lignoceric acid in cultured skin fibroblasts of X-ALD; format: cell-based, human; settings: etomoxir, inhibitor of mitochondrial β-oxidation
[3] = test system: iNOS; test: Expression of iNOS protein (immunoblot) and mRNA (Northern) in rat primary astrocytes; format: cell-based
Procedure: (§1) Immunoblot analysis for iNOS Following 24 h incubation in the presence or absence of stimuli by different cytokines or LPS, macrophages were scraped off, washed with Hank's buffer, and homogenized in 50 mM Tris-HCl (pH 7.4) containing protease inhibitors (1 nM PMSF, 5 μg/ml aprotinin, 5 μg/ml pepstatin A, and 5 μg/ml leupeptin). After electrophoresis the proteins were transferred onto a nitrocellulose membrane, and the iNOS band was visualized by immunoblotting with antibodies against mouse macrophage iNOS and [^125I]-labeled protein A (Singh et al., 1988).
RNA isolation, Northern blot analysis, and reverse-transcriptase coupled polymerase chain reaction (RT-PCR) Stimulated peritoneal macrophages were taken out from culture dishes directly by adding Ultraspec-II RNA reagent (Biotecx Laboratories Inc.) and total RNA was isolated according to the manufacturer's protocol. For northern blot analyses, 20 μg of total RNA was electrophoresed on 1.2% denaturing formaldehyde-agarose gels, electrotransferred to Hybond-Nylon Membrane (Amersham) and hybridized at 68° C. with ^32P-labeled cDNA probe using Express Hyb hybridization solution (Clontech) as described by the manufacturer. […]; After hybridization filters were washed two to three times in solution I (2×SSC, 0.05% SDS) for 1 h at room temperature followed by solution II (0.1×SSC, 0.1% SDS) at 50° C. for another hour. The membranes were then dried and exposed to X-ray film (Kodak). The same filters were stripped and rehybridized with probes for GAPDH. The relative mRNA content for iNOS was measured after scanning the bands with a Biorad (Model GS-670) imaging densitometer.
as §1, with “of” for “of stimuli by”, “stimuli, cells” for “cytokines or LPS, macrophages”, “inhibitors.” for “inhibitors (1 nM PMSF, 5 μg/ml aprotinin, 5 μg/ml pepstatin A, and 5 μg/ml leupeptin).”, “A.” for “A (Singh et al., 1988).”
RNA isolation and Northern blot analysis Cells were taken out from culture dishes directly by adding Ultraspec-II RNA reagent (Biotecx Laboratories Inc.) and total RNA was isolated according to the manufacturer's protocol. For Northern blot analyses, 20 μg of total RNA was electrophoresed on 1.2% denaturing formaldehyde-agarose gels, electrotransferred to Hybond-Nylon Membrane (Amersham) and hybridized at 68° C. with ^32P-labeled cDNA probe using Express Hyb hybridization solution (Clontech) as described by the manufacturer. […]; After hybridization filters were washed two or three times in solution I (2×SSC, 0.05% SDS) for one hour at room temperature followed by solution II (0.1×SSC, 0.1% SDS) at 50° C. for another hour. The membranes were then dried and exposed with X-ray films (Kodak). The same filters were stripped and rehybridized with probes for GAPDH. The relative mRNA content for iNOS was measured after scanning the bands with a Biorad (Model GS-670) imaging densitometer.
as §1, with “After a” for “Following”, “of” for “of stimuli by”, “stimuli, cells” for “cytokines or LPS, macrophages”, “mM” for “nM”, “A.” for “A (Singh et al., 1988).”
RNA isolation and Northern blot analysis Cells were taken out from culture dishes directly by adding Ultraspec-II RNA reagent (Biotecx Laboratories Inc., Houston, Tex.), and total RNA was isolated according to the manufacturer's protocol. […]

[4] = test system: NO production in rat resident macrophages; test: LPS-/cytokine-induced NO production (nitrite) in rat resident peritoneal macrophages; format: cell-based
Procedure: Isolation of Rat Macrophages and Induction of NO Production Resident macrophages were obtained from rats by peritoneal lavage with sterile RPMI 1640 medium containing 1% fetal bovine serum and 100 μg/ml gentamicin (Wang et al., 1995). Cells were washed three times with RPMI 1640 at 4° C. All cell cultures were maintained at 37° C. in a humidified incubator containing 5% CO2 in air. Macrophages, at a concentration of 2×10^6/ml in RPMI 1640 medium containing L-glutamine and gentamicin, were added in volumes of 800 μl to a 35 mm plate. After 1 h, nonadherent cells were removed by washing and 800 μl of serum-free RPMI 1640 medium with various stimuli were added to the adherent cells. After 24 h incubation in 5% CO2 in air at 37° C., the culture supernatants were transferred to measure NO production (Geng et al., 1995; Wang et al., 1995).
Isolation of rat macrophages and induction of NO production Resident macrophages were obtained from rat by peritoneal lavage with sterile RPMI 1640 medium containing 1% fetal bovine serum and 100 μg/ml gentamicin as described herein. Cells were washed three times with RPMI 1640 at 4° C. All cell cultures were maintained at 37° C. in a humidified incubator containing 5% CO2 in air. Macrophages at a concentration of 2×10^6/ml in RPMI 1640 medium containing L-glutamine and gentamicin were added in volumes of 800 μl to a 35 mm plate. After 1 h, nonadherent cells were removed by washing and 800 μl of serum-free RPMI 1640 medium with various stimuli were added to the adherent cells. After incubation in 5% CO2 in air at 37° C., culture supernatants were transferred to measure NO production.
Isolation of rat macrophages and induction of NO production Resident macrophages were obtained from rat by peritoneal lavage with sterile RPMI 1640 medium containing 1% FBS and 100 μg/ml gentamicin. Cells were washed three times with RPMI 1640 at 4° C., and were maintained at 37° C. in a humidified incubator containing 5% CO2 in air. Macrophages at a concentration of […] in RPMI 1640 medium containing L-glutamine and gentamicin were added in volumes of 800 μl to a 35-mm plate. After 1 h, nonadherent cells were removed by washing, and 800 μl of serum-free RPMI 1640 medium with various stimuli was added to the adherent cells. After 24 h the culture supernatants were transferred to measure NO production.
Protein was measured (Bradford, 1976).

[5] = 100 μM mevalonate, 200 μM farnesyl pyrophosphate, 10 μM ubiquinone or cholesterol

Nc1nc[nH]n1 [ATZ, aminotriazole]
increase in ceramide production [1]: more than 5 fold

CCOC(=O)[C@@]1(CCCCCCOc2ccc(Cl)cc2)CO1 [Etomoxir]
effect on stimulated lignoceric acid β-oxidation [2]: had no effect on cAMP-mediated stimulation of lignoceric acid β-oxidation; also recorded: had no effect on lovastatin- or NaPA-mediated stimulation of lignoceric acid β-oxidation

CC(C)=CCC/C(C)=C/CC/C(C)=C/COP(=O)(O)OP(=O)(O)O [FPP, farnesyl pyrophosphate]
rescue of the inhibition of iNOS expression and NF-kβ activation by lovastatin / NaPA [3]: substantially reversed the inhibitory effect of lovastatin

OO [H2O2, hydrogen peroxide]
increase in ceramide production [1]: about 7 fold

CNC(=N)NCCC[C@H](N)C(=O)O [L-NMA, N^G-methyl-L-arginine]
Nitrite ([4]; LPS 1.0 μg/ml, 24 h, NAC 20 mM 2 h before LPS, NMA 0.1 mM, arginase 100 units/ml with LPS): 15.8 ± 2.2 nmol/mg Protein^24h
Inhibition (%) ([4]; of LPS (1.0 μg/ml)-induced nitrite, NAC 20 mM 2 h before, NMA 0.1 mM, arginase 100 units/ml with LPS): 87%

CC(=O)O [acetate]
degradation of sphingomyelin to ceramide / ceramide production [1]: had no effect on the degradation of SM to ceramide

CCCCS(=N)(=O)CCC(N)C(=O)O [buthione (S,R)-sulfoximine]
degradation of sphingomyelin to ceramide / ceramide production [1]: also decreased the level of GSH and induced the production of ceramide

C[C@@]12C(=O)OC(=O)[C@]1(C)[C@H]1CC[C@@H]2O1 [cantharidin]
LPS-mediated induction of iNOS protein and mRNA ([3]; LPS 1.0 μg/ml): enhanced the LPS-mediated induction of iNOS protein and mRNA
LPS-induced NO production ([4]; LPS 1.0 μg/ml, 24 h): inhibited the LPS-induced NO production in rat peritoneal macrophages

CC(C)CCC[C@@H](C)[C@H]1CC[C@H]2[C@@H]3CC=C4C[C@@H](O)CC[C@]4(C)[C@H]3CC[C@]12C [cholesterol]
rescue of the inhibition of iNOS expression and NF-kβ activation by lovastatin / NaPA [3, 5]: did not prevent the inhibitory effect of lovastatin and NaPA

CC(O)(CCO)CC(=O)O (centres unmarked) [mevalonate]
rescue of the inhibition of iNOS expression and NF-kβ activation by lovastatin / NaPA [3]: substantially reversed the inhibitory effect of lovastatin

COC1=C(OC)C(=O)C(C/C=C(\C)CC/C=C(\C)CC/C=C(\C)CC/C=C(\C)CC/C=C(\C)CC/C=C(\C)CC/C=C(\C)CC/C=C(\C)CC/C=C(\C)CCC=C(C)C)=C(C)C1=O [ubiquinone]
rescue of the inhibition of iNOS expression and NF-kβ activation by lovastatin / NaPA [3, 5]: did not prevent the inhibitory effect of lovastatin and NaPA

Microcystin
LPS-mediated induction of iNOS protein and mRNA [3]: enhanced the LPS-mediated induction of iNOS protein and mRNA
